Enhancement data for two molecules are collected here from ChEMBL document CHEMBL1126764, “Bicyclic thiazolidine lactam peptidomimetics of the dopamine receptor modulating peptide Pro-Leu-Gly-NH2” (J Med Chem, 1993).

The assay deals with Dopamine receptor (Bos taurus) (UniProt Q95136+P20288). The assay is described as follows: Ability to enhance the binding of [3H]- ADTN to dopamine receptor from freshly dissected bovine caudate. It counts as protein assay.

In the case of `NC(=O)[C@H]1CS[C@@H]2CC[C@@H](NC(=O)C3CCCN3)C(=O)N12` (some centres not stated), the Enhancement is 75%.
As for `NC(=O)[C@H]1CS[C@@H]2C[C@@H](NC(=O)C3CCCN3)C(=O)N12` (some centres not stated), the Enhancement turned out to be 200%.
